Measurements as given in US8916717B2, “Dioxaspiroketal derivatives, process for their preparation and uses thereof” (Consiglio Nazionale Delle Ricerche, priority 2006, dated 2014).
Where two headings read alike, the source gives them in different places. One block for each compound: values may come before it.

How the values were obtained:
[1] = molecular target: Cδ protein kinase (Homo sapiens, UniProt Q05655); conditions: Watters et al., 1998; cited from earlier work
[2] = tested on: MCF-7 cells; assay: Cell proliferation and viability determination (trypan blue dye exclusion cell counts); type: cell-based, human; conditions: 1.25 μg/ml
Experimental: The study has been carried out using representative tumor cell lines with different histological origin: MCF-7 breast carcinoma (human), M14 (human) and B16 (murine) melanomas, H125 (human) pulmonary carcinoma, HT-29 (human) colon carcinoma, HL-60 (human) promyelocytic leukemia.
All cell lines have been cultured in RPMI-1640 (Hyclone Europe, Cramlington, UK) medium supplemented with 10% of heat inactivated (56° C., 30 minutes) bovine fetal serum (Hyclone Laboratories, Logan, Utah), 2 mM L-glutamine and antibiotics (Life Technologies Ltd., Paisley, Scotland) (complete medium, CM). Cells have been stored at 37° C. in humidified atmosphere with 5% CO2.
Cell suspensions (HL-60) have been harvested and counted. Plastic adherent cells, in semi-confluence condition, have been detached by a short exposure at 0.025% trypsin with 0.01% EDTA and counted.
All used tumor cells have been harvested, suspended in CM and seeded in 24-well plates at 10^5 cell concentration in a final volume of 2 ml/well. For adherent cells a pre-incubation for 18 hours has been carried out in order to promote the adhesion to plastic. […] The cell proliferation, viability and death have been determined by means of cell counts in trypan blue (dye exclusion test) using a hemocytometer.

[3] = tested on: M14 malignant melanoma cells; assay: Cell cycle by flow cytometry analysis (propidium iodide); type: cell-based, human; conditions: M14, starting from 10 μg/ml dose, after 24 hours of treatment
Experimental: (§1) For apoptosis and cellular cycle analysis, control or various concentration MS treated cells have been removed from the culture by means of trypsinization, re-suspended in PBS, washed two times with cold PBS and fixed with 50% of acetone and methanol (1:4) in PBS at 4° C. Fixed cells then were washed in PBS and stained with propidium iodide 50 μg/ml (PI) in the presence of RNase A 100 KU/ml.
(§2) Samples have been analyzed using a FACScan cytometer and fluorescence propidium red signals have been registered on linear scale. Cell fluorescence has been analyzed using a FACScan flow cytometer (Becton Dickinson, USA) using a 488 nm emitting argon laser. Data have been analyzed electronically excluding detritus and cell aggregates. In the red fluorescence, that is proportional to the DNA cell content, the apoptotic cells are represented by hypodiploid peak (cells with DNA fractioned content), easy distinguishable from the healthy cell DNA diploid peak. The fraction of the apoptotic cells is calculated integrating the pre-G1 peak. This cell fraction is representative for those having a PI decreasing coloration, considered a marker of DNA fragmentation, phenomenon associated to cell death by apoptosis. The analysis of cell cycle distribution after 24, 48 and 72 hours of MS treatment has been carried out using ModFitLT software (Becton Dickinson Immunocytometry Systems).

[4] = tested on: M14 cell line (melanoma); assay: Cell apoptosis and necrosis by flow cytometry analysis; type: cell-based, human
Experimental: as §1
as §2, with “This cell fraction is representative for those having a PI decreasing coloration, considered a marker of DNA fragmentation, phenomenon associated to cell death by apoptosis. The analysis of cell cycle distribution after 24, 48 and 72 hours of MS treatment has been carried out using ModFitLT software (Becton Dickinson Immunocytometry Systems).” left out
For the necrosis evaluation, an aliquot of not fixed cells (1×10^6) was incubated with 40 μg/ml PI for 1.5 hour at 37° C. The samples, directly in their coloring solution, have been then analyzed using FACScan flow. […] Apoptotic cells have been detected by FSC/PI dot plot as PI^dim peak, meanwhile P^− and PI^bright represent viable and necrotic cells, respectively.

[5] = molecular target: T1, telomerase (Homo sapiens, UniProt O14746); assay: Telomerasic activity (TeloTAGGG Telomerase PCR ELISA) in extracts of treated tumor cells; type: cell-based; conditions: 48 hours; for telomerase enzymatic activity: 1.25 μg/ml; for inhibition at 12.5 µg/mL / inhibition at 25 µg/mL: read-out: telomerase inhibition in comparison to control
T1 construct: endogenous in cells; host or cells: MCF-7, H-125 and M14 tumour cells
Experimental: Telomerasic activity was evaluated using TeloTAGGG Telomerase PCR ELISA kit, photometric enzymatic immunoassay from Roche (Mannheim, Germany). At time of the test, frozen pellet was lysed directly in the tests-tube using 80 μl of cold extraction buffer. Telomerase amplification was carried out by PCR (30 cycles, 94° C. 30 sec; 52° C. 30 sec; 72° C. 45 sec). Telomerasic activity was determined on the cell extracts according to the protocol recommended by the supplier. Sample absorbance (OD, optical density) was measured at 450 nm in a multi-well plate reader (SpectraCount, Pakard, Meriden, Conn., USA). In order to evaluate telomerasic activity, MCF-7, H-125 and M14 tumor cells were treated for 48 hours with serial doses of methyl-spirane (from 1.25 μg/ml to 50 μg/ml) as above described. Subsequently, the cells have been detached from culture plates by trypsinization, centrifuged, pelletized, and stored at −80° C. until the use.
As to telomerase, the cells have been exposed in vitro at 1.25, 12.5, 25, 50 μg/ml of methyl-spirane and evaluated for telomerasic activity (TLMA) using ELISA assay, 48 hours after the treatment. […] Particularly, in the FIG. 10, panels A-C, the effects at various concentrations (1.25, 12.5, 25, 50) of methyl-spirane on MCF-7, H-125 and M14 cell, lines after 48 hours of treatment are shown.

[6] = tested on: peripheral blood lymphocytes (PBL) from healthy donors; assay: Toxicity on not tumor healthy human cells, supravital propidium iodide method; type: cell-based; conditions: for % apoptotic / % necrotic / % viable: PBL, 48 hours
Experimental: […] After 24 and 48 hours of culture, treated lymphocytes have been analyzed using supravital propidium iodide method (PI).
IN short this system is based on the use of propidium iodide, a fluorescent marker for the cellular DNA that normally penetrates only into the fixed or permeable made cells. PI supravital method is based on the principle that supravital exposure to propidium (high concentration of propidium for some hours at 37° C.) of not previously permeable made cells identifies in the population apoptotic cells clearly distinguishing them from necrotic or viable ones. Cells labeled with 40 μg/ml of propidium iodide directly in culture plates, are incubated at 37° for 1 hour and 30 minutes and analyzed using the flow cytometer.

[7] = tested on: 60 haematological and epithelial human cancer cell lines of NCI panel; conditions: 60 human cancer cell lines, NCI panel (Uckun et al., 2000); cited from earlier work

T1 sequence (O14746 whole entry): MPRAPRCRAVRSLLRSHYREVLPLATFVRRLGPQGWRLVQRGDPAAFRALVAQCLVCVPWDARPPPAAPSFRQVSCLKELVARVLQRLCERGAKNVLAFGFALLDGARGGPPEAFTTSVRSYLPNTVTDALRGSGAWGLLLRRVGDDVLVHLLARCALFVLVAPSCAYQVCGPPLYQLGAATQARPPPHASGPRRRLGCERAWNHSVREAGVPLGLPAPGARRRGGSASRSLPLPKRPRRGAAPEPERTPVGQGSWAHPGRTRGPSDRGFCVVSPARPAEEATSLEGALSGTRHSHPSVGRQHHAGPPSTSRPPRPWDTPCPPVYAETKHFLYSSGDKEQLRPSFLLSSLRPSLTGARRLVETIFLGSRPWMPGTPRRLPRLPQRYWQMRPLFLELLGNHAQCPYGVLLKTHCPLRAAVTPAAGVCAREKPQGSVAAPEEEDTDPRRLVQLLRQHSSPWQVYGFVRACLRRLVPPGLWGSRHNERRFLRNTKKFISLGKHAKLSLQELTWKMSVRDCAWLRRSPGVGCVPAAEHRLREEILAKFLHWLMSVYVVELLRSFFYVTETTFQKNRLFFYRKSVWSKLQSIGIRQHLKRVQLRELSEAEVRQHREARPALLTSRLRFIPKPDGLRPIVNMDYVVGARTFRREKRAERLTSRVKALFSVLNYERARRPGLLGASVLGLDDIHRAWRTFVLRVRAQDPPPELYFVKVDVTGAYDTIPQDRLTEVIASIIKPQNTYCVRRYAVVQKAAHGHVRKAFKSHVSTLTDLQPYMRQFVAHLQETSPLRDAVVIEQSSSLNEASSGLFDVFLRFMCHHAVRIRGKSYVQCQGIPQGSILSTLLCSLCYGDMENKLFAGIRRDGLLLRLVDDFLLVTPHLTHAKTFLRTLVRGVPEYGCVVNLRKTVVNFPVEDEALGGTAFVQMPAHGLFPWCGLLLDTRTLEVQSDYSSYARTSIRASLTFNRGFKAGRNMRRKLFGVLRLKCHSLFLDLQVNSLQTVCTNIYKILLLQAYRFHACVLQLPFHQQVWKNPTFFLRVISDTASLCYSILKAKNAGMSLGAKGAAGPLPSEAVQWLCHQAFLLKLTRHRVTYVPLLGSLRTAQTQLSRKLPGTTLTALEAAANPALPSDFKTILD
Sequence of Cδ protein kinase (Q05655 whole entry): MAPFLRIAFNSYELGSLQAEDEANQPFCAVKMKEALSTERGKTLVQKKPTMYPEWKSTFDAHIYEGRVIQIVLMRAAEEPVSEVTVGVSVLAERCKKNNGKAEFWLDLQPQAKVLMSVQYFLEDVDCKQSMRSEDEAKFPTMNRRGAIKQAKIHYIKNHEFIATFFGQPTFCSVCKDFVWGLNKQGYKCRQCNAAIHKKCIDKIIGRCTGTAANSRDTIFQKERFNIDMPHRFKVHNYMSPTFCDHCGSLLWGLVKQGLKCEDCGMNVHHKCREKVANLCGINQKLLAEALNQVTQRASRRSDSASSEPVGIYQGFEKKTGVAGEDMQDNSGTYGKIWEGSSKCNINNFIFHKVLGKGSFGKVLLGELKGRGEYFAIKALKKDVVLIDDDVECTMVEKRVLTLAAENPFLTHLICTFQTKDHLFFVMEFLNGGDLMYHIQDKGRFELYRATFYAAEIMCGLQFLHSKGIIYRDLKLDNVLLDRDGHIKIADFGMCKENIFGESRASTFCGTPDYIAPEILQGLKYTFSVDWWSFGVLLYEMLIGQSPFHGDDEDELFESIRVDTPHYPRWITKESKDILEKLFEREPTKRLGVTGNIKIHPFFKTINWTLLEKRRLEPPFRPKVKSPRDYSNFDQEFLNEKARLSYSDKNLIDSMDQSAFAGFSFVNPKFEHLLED

Compound: C/C=C/C(=O)CC1CCC(C)C(CC(=O)NCC(O)C(C)C(=O)NCCCC2OC3(CCC2C)COCC(CCC(C)/C=C(\C)C(C)O)C3)O1 (centres unmarked) [B[…]]
activation of Cδ protein kinase (PKCs isoform) [1]: specific activator

telomerase enzymatic activity ([5]; H-125): very scarcely influenced | telomerase enzymatic activity ([5]; MCF-7): very scarcely influenced | inhibition at 12.5 µg/mL ([5]; 12.5 μg/ml, M14): 61% | inhibition at 25 µg/mL ([5]; 25 μg/ml, M14): 75% | inhibition at 50 µg/mL ([5]; 50 μg/ml, two cell lines not named (of MCF-7, H-125, M14)): 80% | telomerasic activity (TLMA) ([5]; 1.25, 12.5, 25, 50 μg/ml, all the examined cell lines): concentration-dependent reduction | inhibition at 12.5 µg/mL ([5]; MCF7, 12.5 μg/ml, MCF-7): 43% | inhibition at 25 µg/mL ([5]; MCF7, 25 μg/ml, MCF-7): 64% | inhibition at 12.5 µg/mL ([5]; NCI-H125, 12.5 μg/ml, H-125): 50% | inhibition at 25 µg/mL ([5]; NCI-H125, 25 μg/ml, H-125): 68%
Compound: CC1CCCC2(OC(O)C=CC2=O)O1 (centres unmarked) [methyl-spirane, 1,7-dioxaspiro[5,5]-8-methyl-undecen-3-en-5-oxa-2-ol]
effect on tumour cell growth in vitro [2]: inhibiting effects | effect on cell cycle (G1 step) [3]: increment of the G1 step | apoptosis induction ([4]; M14, 25 μg/ml, after 24 hours): apoptosis is already observed | concentration-dependent increase of apoptosis ([4]; M14, concentrations higher than 1.25 μg/ml, after 72 hours of treatment): 30-50% | % apoptotic ([6]; 3.15 μg/ml): 2.5% | % necrotic ([6]; 3.15 μg/ml): 16% | % viable ([6]; 3.15 μg/ml): 81.5% | % apoptotic ([6]; 6.25 μg/ml): 6.4% | % necrotic ([6]; 6.25 μg/ml): 15.6% | % viable ([6]; 6.25 μg/ml): 78% | % apoptotic ([6]; 12.5 μg/ml): 30.1% | % necrotic ([6]; 12.5 μg/ml): 40.0% | % viable ([6]; 12.5 μg/ml): 29.7% | % apoptotic ([6]; 25 μg/ml): 33.1% | % necrotic ([6]; 25 μg/ml): 56.6% | % viable ([6]; 25 μg/ml): 10.0% | % apoptotic ([6]; 50 μg/ml): 21.7% | % necrotic ([6]; 50 μg/ml): 70.0% | % viable ([6]; 50 μg/ml): 8.2% | % apoptotic ([6]; 100 μg/ml): 15.0% | % necrotic ([6]; 100 μg/ml): 84.0% | % viable ([6]; 100 μg/ml): 1.0% | necrosis with respect to the control on human lymphocytes ([6]; low concentrations (for example, 1.25 μg/ml)): no increase of necrosis

Compound: spongistatin 1
cytotoxicity IC50 [7]: sub-nanomolar
